Source: article PMC6043591, “Rpn11-mediated ubiquitin processing in an ancestral archaeal ubiquitination system” (Nature Communications, 2018)

Columns and labels:
[1] = molecular target: truncated CsRpn11^Δ149–202 (Candidatus Caldiarchaeum subterraneum); experiment: MST; 50 nM NT-647-labeled CsRpn11^Δ149–202 mixed with a serial 1:1 dilution of CsUb from 47 nM to 770 µM; 45 °C; Monolith NT.115, MST power 80%, laser intensity 40%; three independent experiments
CsRpn11^Δ149–202 = molecular target: T1, CsRpn11^Δ149–202 (Candidatus Caldarchaeum subterraneum, UniProt E6N8B9); experiment: SDS-PAGE of CsUb-pre cleavage; type: biochemical; settings: 14 µM CsUb-pre, 1.75 µM enzyme, 45 °C, pH 7.5, 10 min preincubation; proposed coordination of catalytic Zn2+
T1 construct: gene CSUB_C1473; JAMM core domain, C-terminal residues 149-202 deleted (full length 202); N-terminal His6 tag with TEV site

CsJAMM = molecular target: T2, CsJAMM (Candidatus Caldarchaeum subterraneum, UniProt E6N2R7); experiment: SDS-PAGE of SAMP Csub_C0702 precursor cleavage; type: biochemical; settings: […] SAMP Csub_C0702, […] enzyme, […] °C, pH […] min preincubation
T2 construct: gene CSUB_C0703; N-terminal His6 tag with TEV site; synthetic gene, E. coli
T2 sequence (E6N2R7 1-140): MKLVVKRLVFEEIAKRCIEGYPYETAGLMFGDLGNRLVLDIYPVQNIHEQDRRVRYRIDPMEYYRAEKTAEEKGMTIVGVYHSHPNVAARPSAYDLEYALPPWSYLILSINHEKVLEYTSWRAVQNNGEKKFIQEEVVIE

[2] = molecular target: truncated CsRpn11^Δ149–202 (Candidatus Caldiarchaeum subterraneum)

Kd [1] | KM of CsUb-pre cleavage by Co^2+-bound CsRpn11^Δ149–202 at 45 °C, quantified from SDS-PAGE bands [2] | Compound | SDS-PAGE of CsUb-pre cleavage (CsRpn11^Δ149–202) | SDS-PAGE of SAMP Csub_C0702 precursor cleavage (CsJAMM)
14.6 µM | – | mature C. subterraneum ubiquitin CsUb (natural protein) | – | –
– | – | CC(=O)Nc1c2sscc-2n(C)c1=O [thiolutin] | CsUb-pre processing by CsRpn11 was strongly affected by both 8-TQ and thiolutin | effects on CsJAMM-mediated CsSAMP processing were significantly weaker
– | – | Sc1cccc2cccnc12 [8-thioquinoline] | CsUb-pre processing by CsRpn11 was strongly affected by both 8-TQ and thiolutin | effects on CsJAMM-mediated CsSAMP processing were significantly weaker
– | 17.8 µM | CsUb precursor (CsUb-pre) (natural protein) | – | –
